From BindingDB's records for doi:10.1021/jm5015814 (Slovak Academy of Sciences, 2015)
pIC50: −log10 of the molar value.

Target: Aldehyde reductase AKR1A1 (Rattus norvegicus)
Assay: Inhibition of Wistar rat kidney aldehyde reductase using D-glucuronate as substrate by spectrophotometry

pIC50 | SMILES
4.71 | CCCNC(=O)CSc1nnc2c3cc(C)ccc3n(CC(=O)O)c2n1
4.61 | O=C(O)Cn1c2ccccc2c2nc3ccccc3nc21
4.10 | O=C(O)Cn1ccc2ccccc21 [CHEBI:72814]
4.16 | CC(C)(C)C(=O)c1cn(CC(=O)O)c2ccccc12
